Experiments:
[1] = target: T1, vascular endothelial growth factor receptor-2 (VEGFR2) cytoplasmic domain (Homo sapiens, UniProt P35968); assay: Vascular Endothelial Growth Factor Receptor-2 kinase inhibition assay (TRF); assay type: biochemical; settings: 300 nM compound; 40 μM ATP; read-out: VEGFR-2 % inhibition @ 300 nM
T1 construct: recombinant baculovirus-expressed vascular endothelial growth factor receptor-2 (VEGFR2) cytoplasmic domain; made in house
Experimental: Compounds were tested for their ability to inhibit the kinase activity of recombinant baculovirus-expressed vascular endothelial growth factor receptor-2 (VEGFR2) cytoplasmic domain using the time-resolved fluorescence (TRF) detection system. IC50s were conducted in 96-well Costar high binding plates (Corning Costar #3922, Corning, N.Y.). Briefly, each 96-well plate was coated with 100 μL/well of 10 μg/mL recombinant substrate, glutathione S-transferase-phospholipase C-γ fusion protein (GST-PLCγ Lot # 3P5.1A), in Tris-buffered saline (TBS). The VEGFR2 assay mixture (total volume=100 μL/well) consisting of 20 mM HEPES, pH 7.2, 40 μM ATP, 10 mM MnCl2, 0.1% bovine serum albumin (BSA), and test compound (diluted in DMSO; 2.5% DMSO final in assay) was then added to the assay plate. Enzyme (30 ng/mL VEGFR2 Lot # V2g-2.1A) was added and the reaction was allowed to proceed at 37° C. for 15 minutes. Detection of the phosphorylated product was performed by adding 100 μL/well of Eu-N1 labeled PY100 antibody (PerkinElmer Life Sciences #AD0160, Boston, Mass.) diluted 1:5000 in 0.25% BSA in TBS containing 0.05% Tween-20 (TBS-T). Incubation at 37° C. then proceeded for 1 hour, followed by addition of 100 μL enhancement solution (PerkinElmer Life Sciences #1244-105, Boston, Mass.). The plate was gently agitated and after 30 minutes, the fluorescence of the resulting solution was measured using the PerkinElmer EnVision 2100 (or 2102) multilabel plate reader.

MLK1 (GST-MLK1KD) = target: T2, MLK1 (GST-MLK1KD) (Homo sapiens, UniProt P80192); assay: Mixed Lineage Kinase-1 inhibition assay (32P, myelin basic protein); assay type: biochemical; settings: 60 μM ATP; for inhibition at 1 µM: 1 uM compound, read-out: MLK-1 % inhibition @ 1 uM; for IC50: read-out: MLK-1 IC50
T2 construct: 1 μg/mL of baculoviral GST-MLK1KD (Lot 23.1A); GST; made in house
Experimental: The activity assay for MLK1 was performed using the 96-well Millipore Multiscreen plate format. Each 50-μL assay mixture contained 50 mM HEPES (pH 7.0), 1 mM EGTA, 10 mM MgCl2, 1 mM DTT, 25 mM β-glycerophosphate, 60 μM ATP, 1 μCi [γ-^32P]ATP, 0.1% BSA, 500 μg/mL myelin basic protein (Upstate #13-104), 2% DMSO, various concentrations of test compound, and 1 μg/mL of baculoviral GST-MLK1KD (Lot 23.1A). Samples were incubated for 15 minutes at 37° C. The reaction was stopped by adding ice-cold 50% trichloroacetic acid (TCA) and the proteins were allowed to precipitate for 30 minutes at 4° C. The plates were then washed with ice-cold 25% TCA. Supermix scintillation cocktail was added, and the plates were allowed to equilibrate for 1-2 hours prior to counting in the Wallac MicroBeta 1450 Plus scintillation counter.

CDK5/GST-p25 = CDK5/GST-p25 (Homo sapiens, UniProt Q00535); assay: Cyclin-Dependent Kinase 5 inhibition assay (TRF); assay type: biochemical; settings: 10 μM ATP; read-out: CDK-5 IC50
Experimental: Compounds were tested for their ability to inhibit the kinase activity of baculovirus-expressed cyclin-dependent kinase-5 complexed with GST-p25 (CDK5/GST-p25) using a a TRF detection system. Each 96-well Costar high binding plate (Corning Costar #3922, Corning, N.Y.) was coated with 100 μL/well of 50 μg/mL recombinant GST-tagged substrate [GST-retinoblastoma protein (Rb) Lot # 5.1A] in TBS. The CDK5/GST-p25 assay mixture (total volume=100 μL/well) consisting of 20 mM HEPES, pH 7.2, 10 μM ATP, 10 mM MgCl2, 5 mM EGTA, 25 mM β-glycerophosphate, 0.1% BSA, 2.5% DMSO, and various concentrations of test compound were then added to the assay plate. Enzyme (2 ng/mL CDK5/GST-p25 Lot # p25/CD5-3) was added and the reaction was allowed to proceed at 37° C. for 20 minutes. Detection of the phosphorylated product was performed by adding 100 μL/well of phospho-Rb (Ser-780) antibody (Cell Signaling #9307, Beverly, Mass.) diluted 1:10,000 in antibody dilution buffer (0.1% BSA in TBS-T). After 1-hour incubation at room temperature, 100 μL/well of Eu—N1 labelled anti-rabbit antibody diluted 1:50,000 in antibody dilution buffer (PerkinElmer Life Sciences #AD0105, Boston, Mass.) was added. Incubation at room temperature then proceeded for 1 hour, followed by addition of 100 μl enhancement solution (PerkinElmer Life Sciences #1244-105, Boston, Mass.). The plate was gently agitated and after a few minutes, the fluorescence of the resulting solution was measured using the PerkinElmer EnVision 2100 (or 2102) multilabel plate reader.

Sequence of CDK5/GST-p25 (Q00535 whole entry, species assumed): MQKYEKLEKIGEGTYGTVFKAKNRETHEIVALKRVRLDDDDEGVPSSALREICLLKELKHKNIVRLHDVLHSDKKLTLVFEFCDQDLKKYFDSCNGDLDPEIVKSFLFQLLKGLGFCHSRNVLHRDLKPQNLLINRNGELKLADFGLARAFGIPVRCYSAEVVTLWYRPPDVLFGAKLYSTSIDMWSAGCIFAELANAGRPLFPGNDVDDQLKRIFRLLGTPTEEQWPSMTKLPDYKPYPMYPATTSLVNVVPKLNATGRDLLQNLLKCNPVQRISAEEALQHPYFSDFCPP
Sequence of CDK5/GST-p25 (Q15078 99-307 partner limits assumed, species assumed): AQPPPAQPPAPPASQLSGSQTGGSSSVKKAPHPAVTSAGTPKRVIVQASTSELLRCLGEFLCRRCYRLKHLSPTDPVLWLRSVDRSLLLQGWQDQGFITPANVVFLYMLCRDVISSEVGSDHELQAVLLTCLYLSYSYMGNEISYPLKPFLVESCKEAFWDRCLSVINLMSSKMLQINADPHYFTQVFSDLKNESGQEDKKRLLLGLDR
T2 sequence (P80192 144-412 limits assumed, species assumed): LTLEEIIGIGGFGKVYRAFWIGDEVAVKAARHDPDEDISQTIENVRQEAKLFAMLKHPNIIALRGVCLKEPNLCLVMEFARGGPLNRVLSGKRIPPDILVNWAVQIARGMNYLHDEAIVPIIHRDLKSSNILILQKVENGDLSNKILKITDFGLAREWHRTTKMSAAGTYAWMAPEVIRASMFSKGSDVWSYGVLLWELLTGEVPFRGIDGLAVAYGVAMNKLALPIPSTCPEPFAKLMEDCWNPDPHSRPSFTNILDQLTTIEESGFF
T1 sequence (P35968 786-1356 limits assumed, species assumed): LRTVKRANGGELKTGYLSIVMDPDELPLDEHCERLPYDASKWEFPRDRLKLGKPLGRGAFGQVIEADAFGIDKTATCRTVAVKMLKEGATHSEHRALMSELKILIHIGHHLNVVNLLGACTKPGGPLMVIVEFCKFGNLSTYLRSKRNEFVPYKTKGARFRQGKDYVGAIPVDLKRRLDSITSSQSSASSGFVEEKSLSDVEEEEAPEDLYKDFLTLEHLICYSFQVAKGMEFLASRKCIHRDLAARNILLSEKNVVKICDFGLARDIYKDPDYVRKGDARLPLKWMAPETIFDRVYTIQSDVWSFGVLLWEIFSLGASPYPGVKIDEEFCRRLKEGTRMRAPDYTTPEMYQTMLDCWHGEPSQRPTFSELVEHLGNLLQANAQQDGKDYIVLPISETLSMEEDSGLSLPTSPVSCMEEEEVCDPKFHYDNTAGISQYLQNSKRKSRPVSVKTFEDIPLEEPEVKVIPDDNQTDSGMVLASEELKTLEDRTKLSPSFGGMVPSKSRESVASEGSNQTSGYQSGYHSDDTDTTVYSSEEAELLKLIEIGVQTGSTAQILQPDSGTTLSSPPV

Row | SMILES | inhibition at 0.3 µM [1] | inhibition at 1 µM (MLK1 (GST-MLK1KD)) | IC50 (CDK5/GST-p25) | IC50 (MLK1 (GST-MLK1KD)) | inhibition at 0.3 µM (MLK1 (GST-MLK1KD); 300 nM compound, read-out: MLK-1 % inhibition (@300 nM)) | melting point
1 | O=c1[nH]nc(-c2ccncc2)c2[nH]c3ccccc3c12 [Example 4d, 4-Pyridin-4-yl-2,5-dihydro-pyridazino[4,5-b]indol-1-one] | 18% | 0% | 3820 nM |  |  | 
2 | O=c1[nH]nc(-c2nccs2)c2[nH]c3ccccc3c12 [Example 4f, 4-Thiazo-2-yl-2,5-dihydro-pyridazino[4,5-b]indol-1-one] | 0% | 5% |  |  |  | 
3 | Cn1c(-c2n[nH]c(=O)c3c2[nH]c2ccccc23)nc2ccccc21 [Example 4h, 4-(1-Methyl-1H-benzoimidazol-2-yl)-2,5-dihydro-pyridazino[4,5-b]indol-1-one] | 0% | 0% |  |  |  | 
4 | O=c1[nH]nc(-c2cc3ccccc3o2)c2[nH]c3cc4c(cc3c12)OCO4 [Example 4m, 8-Benzofuran-2-yl-6,9-dihydro-1,3-dioxa-6,7,9-triaza-cyclopenta[b]fluoren-5-one] | 0% | 46% |  |  |  | 
5 | O=c1[nH]nc(-c2cc3ccccc3o2)c2[nH]c3ccc(OCc4ccccc4)cc3c12 [Example 4o, 4-Benzofuran-2-yl-8-benzyloxy-2,5-dihydro-pyridazino[4,5-b]indol-1-one] | 10% | 73% |  | 381 nM |  | 
6 | O=c1[nH]nc(-c2ccc(O)cc2)c2[nH]c3ccccc3c12 [Example 4s, 4-(4-Hydroxy-phenyl)-2,5-dihydro-pyridazino[4,5-b]indol-1-one] |  |  | 657 nM |  |  | > 300 °C
7 | COc1ccc2c(c1)[nH]c1c(-c3ccc(OCc4ccccc4)cc3)n[nH]c(=O)c12 [Example 4t, 4-(4-Benzyloxy-phenyl)-7-methoxy-2,5-dihydro-pyridazino[4,5-b]indol-1-one] |  |  | > 1000 nM |  |  | > 300 °C
8 | O=c1[nH]nc(-c2ccncc2)c2[nH]c3ccc([N+](=O)[O-])cc3c12 [Example 4v, 8-Nitro-4-pyridin-4-yl-2,5-dihydro-pyridazino[4,5-b]indol-1-one] |  |  | > 3000 nM |  |  | 
9 | Cn1c2ccccc2c2c(=O)[nH]nc(-c3cc4ccccc4o3)c21 [Example 11a, 4-Benzofuran-2-yl-5-methyl-2,5-dihydro-pyridazino[4,5-b]indol-1-one] | 0% | 19% |  |  |  | 
10 | Cn1c2ccccc2c2c(=O)[nH]nc(-c3ccc4ccccc4c3)c21 [Example 11c, 5-Methyl-4-naphthalen-2-yl-2,5-dihydro-pyridazino[4,5-b]indol-1-one] | 3% | 0% |  |  |  | 
11 | O=c1[nH]nc(-c2cc3ccccc3s2)c2c1[nH]c1ccccc12 [Example 14b, 1-Benzo[b]thiophen-2-yl-3,5-dihydro-pyridazino[4,5-b]indol-4-one] | 3% | 0% |  |  |  | 
12 | O=c1[nH]nc(-c2ccc(O)cc2)c2c1[nH]c1ccccc12 [Example 14e, 1-(4-Hydroxy-phenyl)-3,5-dihydro-pyridazino[4,5-b]indol-4-one] |  |  | > 3000 nM |  |  | 

Other lines, results leading:

Row | inhibition at 0.3 µM [1] | inhibition at 1 µM (MLK1 (GST-MLK1KD)) | IC50 (CDK5/GST-p25) | IC50 (MLK1 (GST-MLK1KD)) | inhibition at 0.3 µM (MLK1 (GST-MLK1KD); 300 nM compound, read-out: MLK-1 % inhibition (@300 nM)) | melting point | SMILES
13 | 7% | 0% |  |  |  |  | O=c1[nH]nc(-c2ccccn2)c2[nH]c3ccccc3c12 [Example 4b, 4-Pyridin-2-yl-2,5-dihydro-pyridazino[4,5-b]indol-1-one]
14 | 14% | 0% |  |  |  |  | O=c1[nH]nc(-c2cccnc2)c2[nH]c3ccccc3c12 [Example 4c, 4-Pyridin-3-yl-2,5-dihydro-pyridazino[4,5-b]indol-1-one]
15 | 4% | 10% |  |  |  |  | Cc1ccc(-c2n[nH]c(=O)c3c2[nH]c2ccccc23)o1 [Example 4e, 4-(5-Methyl-furan-2-yl)-2,5-dihydro-pyridazino[4,5-b]indol-1-one]
16 | 0% | 2% |  |  |  |  | Cn1ccnc1-c1n[nH]c(=O)c2c1[nH]c1ccccc12 [Example 4g, 4-(1-Methyl-1H-imidazol-2-yl)-2,5-dihydro-pyridazino[4,5-b]indol-1-one]
17 | 16% | 14% |  |  |  |  | O=c1[nH]nc(-c2ccc(-c3ccccc3)cc2)c2[nH]c3ccccc3c12 [Example 4i, 4-Biphenyl-4-yl-2,5-dihydro-pyridazino[4,5-b]indol-1-one]
18 | 0% | 0% |  |  |  |  | O=c1[nH]nc(-c2cnc3ccccc3n2)c2[nH]c3ccccc3c12 [Example 4j, 4-Quinoxalin-2-yl-2,5-dihydro-pyridazino[4,5-b]indol-1-one]
19 | 0% | 41% |  | 2660 nM |  |  | O=c1[nH]nc(-c2cc3ccccc3o2)c2[nH]c3ccccc3c12 [Example 4k, 4-Benzofuran-2-yl-2,5-dihydro-pyridazino[4,5-b]indol-1-one]
20 | 9% | 53% |  | 1020 nM |  |  | COc1ccc2[nH]c3c(-c4cc5ccccc5o4)n[nH]c(=O)c3c2c1 [Example 4l, 4-Benzofuran-2-yl-8-methoxy-2,5-dihydro-pyridazino[4,5-b]indol-1-one]
21 | 2% | 44% |  |  |  |  | O=c1[nH]nc(-c2cc3ccccc3o2)c2[nH]c3cccc(OCc4ccccc4)c3c12 [Example 4n, 4-Benzofuran-2-yl-9-benzyloxy-2,5-dihydro-pyridazino[4,5-b]indol-1-one]
22 | 14% | 0% |  |  |  |  | O=c1[nH]nc(-c2cc3ccccc3o2)c2[nH]c3cc(OCc4ccccc4)ccc3c12 [Example 4p, 4-Benzofuran-2-yl-7-benzyloxy-2,5-dihydro-pyridazino[4,5-b]indol-1-one]
23 | 21% |  |  | 138 nM | 67% |  | O=c1[nH]nc(-c2cc3ccccc3o2)c2[nH]c3ccc(O)cc3c12 [Example 4q, 4-Benzofuran-2-yl-8-hydroxy-2,5-dihydro-pyridazino[4,5-b]indol-1-one]
24 |  |  | > 1000 nM |  |  | > 300 °C | COc1ccc(-c2n[nH]c(=O)c3c2[nH]c2ccccc23)cc1 [Example 4r, 4-(4-Methoxy-phenyl)-2,5-dihydro-pyridazino[4,5-b]indol-1-one]
25 |  |  | 756 nM |  |  | > 300 °C | COc1ccc2c(c1)[nH]c1c(-c3ccc(O)cc3)n[nH]c(=O)c12 [Example 4u, 4-(4-Hydroxy-phenyl)-7-methoxy-2,5-dihydro-pyridazino[4,5-b]indol-1-one]
26 | 0% | 0% |  |  |  |  | Cn1c2ccccc2c2c(=O)[nH]nc(-c3cc4ccccc4s3)c21 [Example 11b, 4-Benzo[b]thiophen-2-yl-5-methyl-2,5-dihydro-pyridazino[4,5-b]indol-1-one]
27 | 1% | 12% |  |  |  |  | O=c1[nH]nc(-c2ccc3ccccc3c2)c2c1[nH]c1ccccc12 [Example 14c, 1-Naphthalen-2-yl-3,5-dihydro-pyridazino[4,5-b]indol-4-one]

Reference: patent publication US7732447B2, “Fused [d]pyridazin-7-ones” (Cephalon, Inc., priority 2006, dated 2010)
